Measured values as given in the supplement of paper PMC9938120.

Assays:
Experiment in all cases: drug sensitivity score (DSS3, normalised partial AUC of % inhibition dose-response) (DSS (score)); higher = more sensitive (stronger inhibition of viability); extreme values may be limits of the assay
FMOC11 = patient-derived high-grade serous ovarian cancer cells; conditions: 72 h; library: FO5A; assay format: 2D, 384-well, CellTiter-Glo
Outline: (§1)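 On 384-well flat clear-bottom plates carrying compounds at five concentrations across a 10,000-fold range, patient-derived ovarian cancer cells below passage 10 were incubated for 72 h at 37 °C with 5% CO2. CellTiter-Glo readout of viability was processed in Breeze. A higher drug sensitivity score, defined as the partial area under the percent-inhibition dose-response curve divided by the log of the upper asymptote, means greater sensitivity.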

FMOC28 = patient-derived low-grade serous ovarian cancer cells; conditions: 72 h; library: FO5A; assay format: 2D, 384-well, CellTiter-Glo
Outline: as §1

FMOC17 = patient-derived low-grade serous ovarian cancer cells; conditions: 72 h; library: FO5A; assay format: 2D, 384-well, CellTiter-Glo
Outline: as §1

FMOC02_2 = patient-derived low-grade serous ovarian cancer cells; conditions: 72 h; library: FO5A; assay format: 2D, 384-well, CellTiter-Glo
Outline: as §1

FMOC03 = patient-derived mucinous ovarian cancer cells; conditions: 72 h; library: FO5A; assay format: 2D, 384-well, CellTiter-Glo
Outline: as §1

FMOC02_3 = patient-derived low-grade serous ovarian cancer cells; conditions: 72 h; library: FO5A; assay format: 2D, 384-well, CellTiter-Glo
Outline: as §1

FMOC09 = patient-derived high-grade serous ovarian cancer cells; conditions: 72 h; library: FO5A; assay format: 2D, 384-well, CellTiter-Glo
Outline: as §1

FMOC25_2 = patient-derived low-grade serous ovarian cancer cells; conditions: 72 h; library: FO5A; assay format: 2D, 384-well, CellTiter-Glo
Outline: as §1

FMOC02_1 = patient-derived low-grade serous ovarian cancer cells; conditions: 72 h; library: FO5A; assay format: 2D, 384-well, CellTiter-Glo
Outline: as §1

FMOC24 = patient-derived high-grade serous ovarian cancer cells; conditions: 72 h; library: FO5A; assay format: 2D, 384-well, CellTiter-Glo
Outline: as §1

FMOC25_1 = patient-derived low-grade serous ovarian cancer cells; conditions: 72 h; library: FO4B; assay format: 2D, 384-well, CellTiter-Glo
Outline: as §1

FMOC04 = patient-derived high-grade serous ovarian cancer cells; conditions: 72 h; library: FO5A; assay format: 2D, 384-well, CellTiter-Glo
Outline: as §1

FMOC22 = patient-derived mucinous ovarian cancer cells; conditions: 72 h; library: FO5A; assay format: 2D, 384-well, CellTiter-Glo
Outline: as §1

FMOC06 = patient-derived mucinous ovarian cancer cells; conditions: 72 h; library: FO5A; assay format: 2D, 384-well, CellTiter-Glo
Outline: as §1

FMOC14 = patient-derived high-grade serous ovarian cancer cells; conditions: 72 h; library: FO5A; assay format: 2D, 384-well, CellTiter-Glo
Outline: as §1

FMOC27 = patient-derived low-grade serous ovarian cancer cells; conditions: 72 h; library: FO5A; assay format: 2D, 384-well, CellTiter-Glo
Outline: as §1

Compound	drug sensitivity score (FMOC11)	drug sensitivity score (FMOC28)	drug sensitivity score (FMOC17)	drug sensitivity score (FMOC02_2)	drug sensitivity score (FMOC03)	drug sensitivity score (FMOC02_3)	drug sensitivity score (FMOC09)	drug sensitivity score (FMOC25_2)	drug sensitivity score (FMOC02_1)	drug sensitivity score (FMOC24)	drug sensitivity score (FMOC25_1)	drug sensitivity score (FMOC04)	drug sensitivity score (FMOC22)	drug sensitivity score (FMOC06)	drug sensitivity score (FMOC14)	drug sensitivity score (FMOC27)
Cc1c(N)nc([C@H](CC(N)=O)NC[C@H](N)C(N)=O)nc1C(=O)N[C@H](C(=O)N[C@H](C)[C@@H](O)[C@H](C)C(=O)N[C@H](C(=O)NCCc1nc(-c2nc(C(=O)NCCC[S+](C)C)cs2)cs1)[C@@H](C)O)[C@@H](OC1OC(CO)C(O)C(O)C1OC1OC(CO)C(O)C(OC(N)=O)C1O)c1cnc[nH]1 (stereo partly specified) [Bleomycin]	3.4	2.9	3.4	4.3	0.7	8.8	3.2	3.2	3.1	5.65	9	0	0.8	3.1	0.1	2.4
C[C@]1(O)C[C@@H](c2nc(-c3ccc4ccc(-c5ccccc5)nc4c3)c3c(N)nccn32)C1 [Linsitinib]	0.1	4.9	0.6	2.7	0.1	6.9	0.1	5.8	1.2	2.1	3.7	2.5	0	0.8	0	0
Cc1cc(C)c(CNC(=O)c2cc(-c3ccc(CN4CCOCC4)cc3)cc3c2cnn3C2CCCC2)c(=O)[nH]1 [EPZ-5687]	0	5.1	0.1	0.9	0.6	1.5	0	1.8	0.4	1.7	0	0.05	0.6	0	0	3.1
COC(=O)N[C@@H](C)CNc1nccc(-c2cn(C(C)C)nc2-c2cc(Cl)cc(NS(C)(=O)=O)c2F)n1 [Encorafenib]	0	0	0	0	0	0.9	0	3.3	4.2	0	0.2	0	0	0	0	0
C[C@H]1Oc2cc(cnc2N)-c2c(nn(C)c2C#N)CN(C)C(=O)c2ccc(F)cc21	0	0	0	3.2	0	3.1	1.6	1.6	0.8	1.6	0	0	0	3.4	0	0
FC(F)(F)c1ccc(/C=C/c2nc(COc3ccc(CCCCn4ccnn4)cc3)co2)cc1 [Mubritinib]	0.6	0	0	0	3.9	0	0	1.1	0	0	0.1	0	3	0.6	0.7	1.7
CNC(=O)c1ccc(C)c(-n2c(C)cc(OCc3ccc(F)cc3F)c(Br)c2=O)c1	0	0	0.3	0	0	0	0	0	0	0	0	0	0	0	0	0
Nc1nc(OCc2cc(Br)cs2)c2[nH]cnc2n1 [Lomeguatrib]	0	2.6	0	0.8	0	0.4	0	1.4	0	0	0	0	0	0	0	0
CCN(CC)CCNC(=O)c1c(C)[nH]c(/C=C2\C(=O)Nc3ccc(F)cc32)c1C [Sunitinib]	0	0	0.1	0.9	0	0.6	0	0.5	2.3	0	0	0	0	0	0	0
C[C@@H](Oc1ccc2[nH]nc(/C=C/c3cnn(CCO)c3)c2c1)c1c(Cl)cncc1Cl	2.4	0.6	4.1	4.2	3.1	3.9	3.3	6.8	6.3	1.7	1	1.8	3.5	6	0	2.4
CN1CC[C@@H](NC(=O)Nc2ccc(C#N)cc2)C[C@@H]1c1nc2ccccc2[nH]1 [Glasdegib]	0	3.7	0	0.4	0	0	0	5.2	0	2.75	0.1	0	0	0	0	0
